Laboratory results: PMC11904948, “Peptide‐Drug Conjugate for Therapeutic Reprogramming of Tumor‐Associated Macrophages in Breast Cancer” (Advanced Science, 2025)

Test system: mouse bone marrow‐derived macrophages (BMDM)
Experiment: Phagocytosis of fluorescent E. coli particles by BMDM
Format: cell-based
Details: 10 µM 4 h, washed, 48 h follow-up, versus MACTIDE treated and untreated BMDM
Description: We then analyzed if MACTIDE‐V affected the phagocytic activity of BMDM in vitro.
For the E. coli phagocytosis assay, cells were cultured in a 96‐well plate and treated with conjugates as previously described (for 4 h at a 10 µM concentration at 37 °C, then peptide conjugates were removed, washed with media and fresh media was added). The phagocytosis assay was performed at 48 h after treatment removal by removing the media, incubating fluorescent E. coli BioParticles for 2 h, followed by a 1 min incubation with trypan blue (Vybrant Phagocytosis Assay Kit, Invitrogen, Cat# V6694). Plates were read at 480 nm excitation and 520 nm emission using a BioTek Synergy H1 plate reader.

Substance: Vert‐Ahx‐G(CTKSIPPIC)SPGAK‐OH (disulfide) [MACTIDE‐V]
- phagocytosis of fluorescently labeled E. coli: significantly higher phagocytosis
